From article PMC6178282, “Comparative cell biological study of in vitro antitumor and antimetastatic activity on melanoma cells of GnRH-III-containing conjugates modified with short-chain fatty acids” (Beilstein Journal of Organic Chemistry, 2018)
Like-named read-outs stand apart in the source and are kept apart here.

Columns and labels:
A2058 melanoma cells [1] = assay: Apoptosis assay, annexin V-FITC flow cytometry; type: cell-based, human; details: 10^−5 M, 24 h, average of two parallels ± S.D., control 10.6 ± 0.51
Experimental: The pro-apoptotic effects of conjugates and Dau at 10^−5 M concentration was studied after 24 h incubation by flow cytometry using FITC-annexin V (Sony Biotechnology, Weybridge, UK) and a novel image cytometer (NucleoCounter® NC-250^TM, ChemoMetec A/S, Lillerød, Denmark) using Vitabright-48™ (ChemoMetec A/S, Lillerød, Denmark), a cell permeable dye that reacts with thiol groups to form a fluorescent product. […]
normalizing the viability of conjugate-treated cells with that of the control cells, and these indices of groups pretreated with inhibitors or DMSO were statistically compared.
The apoptotic effect of conjugates and Dau was determined by a FACSCalibur flow cytometer (Becton Dickinson, San Jose, CA, USA) after staining with annexin V-FITC (Sony Biotechnology, Weybridge, UK) and NucleoCounter® NC-250™ cell analyzer (ChemoMetec A/S, Lillerød, Denmark) using Vitabright-48™, a cell-permeable fluorescent dye (ChemoMetec A/S, Lillerød, Denmark). […]
The cells were dissociated by a TrypLE reagent (Thermo Fisher Scientific, Waltham, MA, USA) composed of recombinant enzyme protecting the cell’s surface proteins and it was followed by a centrifugation and a washing step with PBS. […] Before labeling with annexin V-FITC, the cells were measured by a flow cytometer for controlling the autofluorescence of cells in case of each treatment group. […]

A2058 melanoma cells [2] = assay: xCELLigence impedance-based long-term antiproliferative/cytotoxic measurement; type: cell-based, human; details: for IC50: Homo sapiens
From the text: One of the major requirements for a drug-delivery conjugate is the ability to provide the antitumor activity of the attached drug inside the cells. The antiproliferative/cytotoxic effect of conjugates was investigated by an impedimetric technique, xCELLigence System (ACEA Biosciences, San Diego, CA, USA). The real-time measurement of the impedance change, which is in direct correlation with the number of adhered cells on an electrode surface, makes this impedimetric assay sensitive enough for cytotoxicity experiments. In the event of a cytotoxic compound, the cells detach from the electrode surface and a drop in the impedance – given as Cell index values – could be observed.
IC50 values – a concentration that decreases the cell viability by 50% – were calculated from Cell index values obtained at 48 h and 72 h for each concentration and used for comparing the effects of conjugates. It is clearly seen that the presence of acylated Lys could increase almost 10-fold the antitumor activity (p < 0.001) of parent conjugate (GnRH-III(Dau=Aoa)). […]
Cell proliferation and cytotoxicity measurement
The antiproliferative/cytotoxic effect of conjugates compared with Dau was assessed using the xCELLigence SP System (ACEA Biosciences, San Diego, CA, USA). This system uses a so-called E-plate having gold microelectrodes covered the surface of each well and quantifies different cellular activities (e.g. cell proliferation, cell adhesion) by real-time measuring the impedance. The detected impedance change is in direct correlation with the cell number or the electrode surface covered by the attached cells. A relative and dimensionless parameter, Cell index (CI), was calculated from the detected impedance change by the following formula: […]
where Zi is the impedance at a given time point, Z0 is the impedance at t = 0 h, and Fi is a constant depending on the frequency (F10kHz = 15). […]
For the treatment of the cells, the conjugates and the free drug were applied in 10−12–10−4 M final concentrations and the cells were monitored for further 72 h. […]
In order to evaluate whether the conjugates could elicit their antiproliferative/cytotoxic character in short-term, A2058 cells (10^4 cells/well) were seeded in 96-well plate 24 h before the treatment. […] After treating the cells with compounds in 10−6–10−5 M concentrations, where their most significant cytotoxic effect was detected in case of the long-term treatments, the cells were washed twice with serum-free medium and cultured for further 48 h in serum-containing medium. The viability of cells was determined by alamarBlue-assay (Thermo Fisher Scientific, Waltham, MA, USA) according to the manufacturer’s instruction. After 4 h incubation with the alamarBlue® reagent, the fluorescence intensity of the reaction product

[3] = A2058 cells, Cell index time course, Figure S5

COc1cccc2c1C(=O)c1c(O)c3c(c(O)c1C2=O)C[C@@](O)(C(C)=O)C[C@@H]3O[C@H]1C[C@H](N)[C@H](O)[C@H](C)O1 [daunorubicin]
the ratio of apoptotic cells, annexin V (A2058 melanoma cells [1]): 33.6 ± 5.51 %
concentrations at which the tumor-growth inhibitory effect was elicited (time-course study) (A2058 melanoma cells [2]; [3]): 10^–6 to 10^−4 M
time after treatment at which the effect on Cell index set in (A2058 melanoma cells [2]; [3]): 0 to 5 h
IC50 (A2058 melanoma cells [2]; A2058, 48 h, read-out: 48 h IC50): 190 ± 17 nM
IC50 (A2058 melanoma cells [2]; A2058, 72 h, read-out: 72 h IC50): 53 ± 9 nM
